Assay results published in PubChem BioAssay (NCI).
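1) Cells in 96-well plates. 2) Compound, 48 h, 5 concentrations. 3) Linear interpolation between surrounding doses. 4) Unreached endpoint = highest concentration. TGI is the concentration that stops growth completely.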

Columns and labels:
Assay in all cases: NCI anticancer screen, dose series, 48 h
[1] = tested on: NCI-H460 lung
[2] = tested on: UACC-62 melanoma
[3] = tested on: M14 melanoma
[4] = tested on: HS 578T breast
[5] = tested on: SK-MEL-2 melanoma
[6] = tested on: CAKI-1 renal
[7] = tested on: RXF 393 renal
[8] = tested on: SN12C renal
[9] = tested on: NCI-H522 lung
[10] = tested on: A549 NSCLC
[11] = tested on: OVCAR-3 ovarian
[12] = tested on: MOLT-4 leukemia
[13] = tested on: U251 CNS
[14] = tested on: COLO 205 colon
[15] = tested on: SW-620 colon
[16] = tested on: HCT-116 colon
[17] = tested on: MDA-MB-435
[18] = tested on: RPMI-8226 leukemia
[19] = tested on: UO-31 renal
[20] = tested on: SK-OV-3 ovarian
[21] = tested on: HCC-2998 colon
[22] = tested on: HT29 colon
[23] = tested on: MCF7 breast
[24] = tested on: 786-0 renal
[25] = tested on: ACHN renal
[26] = tested on: T-47D breast
[27] = tested on: SNB-19 CNS
[28] = tested on: OVCAR-5 ovarian
[29] = tested on: SK-MEL-28 melanoma
[30] = tested on: UACC-257 melanoma
[31] = tested on: BT-549 breast
[32] = tested on: SF-268 CNS
[33] = tested on: NCI-H226 lung
[34] = tested on: HL-60(TB) leukemia
[35] = tested on: LOX IMVI melanoma
[36] = tested on: OVCAR-8 ovarian
[37] = tested on: CCRF-CEM leukemia
[38] = tested on: MDA-MB-231 breast
[39] = tested on: SK-MEL-5 melanoma
[40] = tested on: OVCAR-4 ovarian
[41] = tested on: NCI-H23 lung
[42] = tested on: MALME-3M melanoma
[43] = tested on: SF-295 CNS
[44] = tested on: MDA-N
[45] = tested on: HOP-62 NSCLC
[46] = tested on: SR leukemia
[47] = tested on: KM12 colon
[48] = tested on: TK-10 renal
[49] = tested on: PC-3 prostate
[50] = tested on: NCI/ADR-RES ovarian
[51] = tested on: SF-539 CNS
[52] = tested on: IGROV1 ovarian
[53] = tested on: K-562 leukemia
[54] = tested on: EKVX NSCLC
[55] = tested on: HOP-92 NSCLC
[56] = tested on: A498 renal
[57] = tested on: DU-145 prostate
[58] = tested on: HCT-15 colon
[59] = tested on: SNB-75 CNS

Q: Which results are given for Cc1cc2c(cc1C)C(=O)c1ncccc1C2=O?
A: TGI [1]: > 100 µM; TGI [2]: > 100 µM; TGI [3]: > 100 µM; TGI [4]: > 100 µM; TGI [5]: > 100 µM; TGI [6]: > 100 µM; TGI [7]: > 100 µM; TGI [8]: > 100 µM; TGI [9]: 43.9 µM; TGI [10]: > 100 µM; TGI [11]: 9.65 µM; TGI [12]: 74.2 µM; TGI [13]: > 100 µM; TGI [14]: 82.4 µM; TGI [15]: > 100 µM; TGI [16]: 61.1 µM; TGI [17]: 34.4 µM; TGI [18]: > 100 µM; TGI [19]: > 100 µM; TGI [20]: > 100 µM; TGI [21]: > 100 µM; TGI [22]: > 100 µM; TGI [23]: > 100 µM; TGI [24]: > 100 µM; TGI [25]: > 100 µM; TGI [26]: > 100 µM; TGI [27]: > 100 µM; TGI [28]: > 100 µM; TGI [29]: > 100 µM; TGI [30]: 46.3 µM; TGI [31]: > 100 µM; TGI [32]: > 100 µM; TGI [33]: > 100 µM; TGI [34]: 30.6 µM; TGI [35]: > 100 µM; TGI [36]: > 100 µM; TGI [37]: > 100 µM; TGI [38]: 67.1 µM; TGI [39]: 23.2 µM; TGI [40]: > 100 µM; TGI [41]: 50.9 µM; TGI [42]: 52.9 µM; TGI [43]: > 100 µM; TGI [44]: 36.2 µM; TGI [45]: > 100 µM; TGI [46]: 25 µM; TGI [47]: > 100 µM; TGI [48]: > 100 µM; TGI [49]: > 100 µM; TGI [50]: 70.8 µM; TGI [51]: 90 µM; TGI [52]: > 100 µM; TGI [53]: > 100 µM; TGI [54]: > 100 µM; TGI [55]: > 100 µM; TGI [56]: > 100 µM; TGI [57]: > 100 µM; TGI [58]: > 100 µM; TGI [59]: > 100 µM

Q: How did the TGI [1] turn out when O=C1C(=O)c2ccccc2C=C1[N+](=O)[O-] was run?
A: The TGI was over 100 µM.

Q: What about the TGI [2] of the same compound?
A: The TGI was 80.1 µM.

Q: And the TGI [3]?
A: The TGI was over 100 µM.

Q: What about the TGI [4] of the same compound?
A: The TGI was over 100 µM.

Q: What about the TGI [5] of the same compound?
A: The TGI was 99.5 µM.

Q: What about the TGI [6] of the same compound?
A: Its TGI is over 100 µM.

Q: What about the TGI [7] of the same compound?
A: The TGI was 78.9 µM.

Q: What about the TGI [8] of the same compound?
A: Its TGI is over 100 µM.

Q: What about the TGI [9] of the same compound?
A: Its TGI is over 100 µM.

Q: And the TGI [10]?
A: The TGI was over 100 µM.

Q: What about the TGI [11] of the same compound?
A: Its TGI is 85.2 µM.

Q: What about the TGI [12] of the same compound?
A: Its TGI is 65.4 µM.

Q: What about the TGI [13] of the same compound?
A: The TGI was over 100 µM.

Q: What about the TGI [14] of the same compound?
A: The TGI was over 100 µM.

Q: And the TGI [15]?
A: Its TGI is over 100 µM.

Q: What about the TGI [16] of the same compound?
A: Its TGI is 69.9 µM.

Q: What about the TGI [17] of the same compound?
A: The TGI was 31.8 µM.

Q: And the TGI [18]?
A: Its TGI is over 100 µM.

Q: And the TGI [19]?
A: Its TGI is over 100 µM.

Q: And the TGI [20]?
A: The TGI was over 100 µM.

Q: And the TGI [21]?
A: The TGI was over 100 µM.

Q: What about the TGI [22] of the same compound?
A: Its TGI is over 100 µM.

Q: What about the TGI [23] of the same compound?
A: Its TGI is 78.9 µM.

Q: What about the TGI [24] of the same compound?
A: The TGI was over 100 µM.

Q: What about the TGI [25] of the same compound?
A: Its TGI is over 100 µM.

Q: And the TGI [26]?
A: The TGI was over 100 µM.

Q: What about the TGI [27] of the same compound?
A: The TGI was over 100 µM.

Q: And the TGI [28]?
A: Its TGI is over 100 µM.

Q: What about the TGI [29] of the same compound?
A: The TGI was over 100 µM.

Q: And the TGI [30]?
A: Its TGI is 58.9 µM.

Q: What about the TGI [31] of the same compound?
A: The TGI was over 100 µM.

Q: And the TGI [32]?
A: Its TGI is over 100 µM.

Q: What about the TGI [33] of the same compound?
A: Its TGI is over 100 µM.

Q: And the TGI [34]?
A: The TGI was 54.2 µM.

Q: And the TGI [35]?
A: Its TGI is over 100 µM.

Q: And the TGI [36]?
A: Its TGI is over 100 µM.

Q: What about the TGI [37] of the same compound?
A: The TGI was 86.1 µM.

Q: And the TGI [38]?
A: The TGI was 66.5 µM.

Q: What about the TGI [39] of the same compound?
A: Its TGI is 46.4 µM.

Q: What about the TGI [40] of the same compound?
A: The TGI was over 100 µM.

Q: What about the TGI [41] of the same compound?
A: The TGI was over 100 µM.

Q: What about the TGI [43] of the same compound?
A: The TGI was over 100 µM.

Q: What about the TGI [44] of the same compound?
A: Its TGI is 39.2 µM.

Q: What about the TGI [45] of the same compound?
A: Its TGI is over 100 µM.

Q: What about the TGI [46] of the same compound?
A: The TGI was over 100 µM.

Q: What about the TGI [47] of the same compound?
A: Its TGI is over 100 µM.

Q: And the TGI [48]?
A: The TGI was over 100 µM.

Q: And the TGI [49]?
A: Its TGI is over 100 µM.

Q: What about the TGI [50] of the same compound?
A: The TGI was 76.4 µM.

Q: What about the TGI [51] of the same compound?
A: The TGI was over 100 µM.

Q: And the TGI [52]?
A: Its TGI is over 100 µM.

Q: And the TGI [53]?
A: Its TGI is over 100 µM.

Q: And the TGI [54]?
A: Its TGI is 56.8 µM.

Q: What about the TGI [55] of the same compound?
A: Its TGI is over 100 µM.

Q: And the TGI [56]?
A: The TGI was over 100 µM.

Q: What about the TGI [57] of the same compound?
A: Its TGI is over 100 µM.

Q: What about the TGI [58] of the same compound?
A: The TGI was over 100 µM.

Q: And the TGI [59]?
A: Its TGI is over 100 µM.
